# Data: ChEMBL document CHEMBL5528010, “The discovery of aryl-2-nitroethyl triamino pyrimidines as anti-Trypanosoma brucei agents” (Eur J Med Chem, 2024)
# Assays:
# [1] = Inhibition of N-terminal his 6 tagged recombinant Trypanosoma brucei PTR1 expressed in Escherichia coli BL21 (DE3) cells preincubated for 10 mins followed by NADPH addition and measured after 10 to 50 mins by multilabel plate reader method; format: cell-based
# Pteridine reductase 1 = target: T1, Pteridine reductase 1 (Leishmania major, UniProt Q01782); assay: Inhibition of N-terminal his 6 tagged recombinant Leishmania major PTR1 expressed in Escherichia coli BL21 (DE3) cells preincubated for 10 mins followed by NADPH addition and measured after 10 to 50 mins by multilabel plate reader method
# T1 sequence (Q01782 whole entry): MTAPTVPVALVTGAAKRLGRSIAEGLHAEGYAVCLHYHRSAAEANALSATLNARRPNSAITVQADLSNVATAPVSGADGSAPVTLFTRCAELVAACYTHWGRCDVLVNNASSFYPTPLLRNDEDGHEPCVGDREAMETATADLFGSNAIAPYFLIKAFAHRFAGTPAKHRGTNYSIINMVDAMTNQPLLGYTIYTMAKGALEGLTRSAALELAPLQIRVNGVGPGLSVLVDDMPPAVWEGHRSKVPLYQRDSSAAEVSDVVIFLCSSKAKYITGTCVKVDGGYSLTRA
# Trypanosoma brucei [2] = assay: Antiparasitic activity against blood stream form Trypanosoma brucei assessed as parasitic growth inhibition incubated for 72 hrs by resazurin dye based fluorescence analysis; format: functional, organism-based
# THP-1 = assay: Cytotoxicity against human THP-1 cells assessed as reduction in cell viability measured after 72 hrs by MTT assay; format: functional
# [3] = Selectivity index, ratio of CC50 for human THP-1 cells to EC50 for bloodstream form Trypanosoma brucei; format: toxicity; details: read-out: Ratio CC50/EC50
# Leishmania infantum = assay: Antiparasitic activity against Leishmania infantum intracellular amastigotes MHOM/BR/1972/BH46 infected in human THP-1 cells assessed as inhibition of parasitic growth at 50 uM pre-infected for 24 hrs followed by compound addition and measured after 48 hrs relative to control; format: functional; details: MHOM/BR/1972/BH46, THP-1
# Trypanosoma brucei [4] = assay: Antiparasitic activity against blood stream form Trypanosoma brucei assessed as parasitic growth inhibition at 10 uM incubated for 72 hrs by resazurin dye based fluorescence analysis relative to control; format: functional; set-up: scale not given: the % may be the effect or the level left
# [5] = Cmax in BALB/c mouse at 20 mg/kg, po measured upto 24 hrs by LC-MS/MS analysis; format: ADME, organism-based; details: in vivo
# [6] = Tmax in BALB/c mouse at 20 mg/kg, po measured upto 24 hrs by LC-MS/MS analysis; format: ADME, organism-based; details: in vivo
# [7] = AUC last in BALB/c mouse at 20 mg/kg, po measured upto 24 hrs by LC-MS/MS analysis; format: ADME, organism-based; details: in vivo
# [8] = Half life in BALB/c mouse at 20 mg/kg, po measured upto 24 hrs by LC-MS/MS analysis; format: ADME, organism-based; details: in vivo
Structure (SMILES),IC50 [1] [nM],IC50 (Pteridine reductase 1) [nM],EC50 (Trypanosoma brucei [2]) [nM],CC50 (THP-1) [nM],selectivity ratio [3],inhibition at 50 µM (Leishmania infantum) [%],Activity (Trypanosoma brucei [4]) [%],Cmax [5] [ng/mL],Tmax [6] [h],AUC(0-t) at 24 h [7] [ng·h/mL],half-life [8] [h]
COc1cc(C(C[N+](=O)[O-])c2c(N)nc(N)nc2N)ccc1O (stereo not given),70,19800,2130,50000,23,21.6,,,,,
Nc1nc(N)c(C(C[N+](=O)[O-])c2ccc(Cl)c(Cl)c2)c(N)n1 (stereo not given),150,60200,820,25000,31,53.9,,,,,
Nc1nc(N)c(C(C[N+](=O)[O-])c2ccc(Cl)cc2)c(N)n1 (stereo not given),< 100,,1280,25000,19,,,,,,
Nc1nc(N)c(C(C[N+](=O)[O-])c2c[nH]c3ccccc23)c(N)n1 (stereo not given),< 100,13900,,,,4,28,,,,
Cc1ccc(C(C[N+](=O)[O-])c2c(N)nc(N)nc2N)s1 (stereo not given),390,,2410,100000,42,15.4,,,,,
COc1cccc(OC)c1C(C[N+](=O)[O-])c1c(N)nc(N)nc1N (stereo not given),130,70700,1680,12500,7,79.8,,,,,
Nc1nc(N)c(C(C[N+](=O)[O-])c2ccc(OCc3ccc(Cl)c(Cl)c3)cc2)c(N)n1 (stereo not given),220,49700,340,50000,147,11.4,,63,2,435,3
CCCCCCCCCCCCCCCCOP(=O)([O-])OCC[N+](C)(C)C [MILTEFOSINE],,,,,,1.29,,,,,
Nc1nc(N)c(C(C[N+](=O)[O-])c2ccc(Br)cc2)c(N)n1 (stereo not given),< 100,64100,1590,25000,16,83.4,,,,,
Nc1nc(N)c(C(C[N+](=O)[O-])c2ccco2)c(N)n1 (stereo not given),160,63800,5050,50000,10,,,,,,
COc1ccc(C(C[N+](=O)[O-])c2c(N)nc(N)nc2N)cc1OC (stereo not given),120,2400,2330,25000,11,62.4,,,,,
Nc1nc(N)c(C(C[N+](=O)[O-])c2cccs2)c(N)n1 (stereo not given),190,4900,3330,50000,15,22.5,,,,,
Nc1nc(N)c(C(C[N+](=O)[O-])c2cccc(Br)c2)c(N)n1 (stereo not given),50,58100,650,50000,118,30.2,,,,,
Nc1nc(N)c(C(C[N+](=O)[O-])c2ccc3c(c2)CCO3)c(N)n1 (stereo not given),390,21300,4400,50000,11,21.1,,,,,
Nc1nc(N)c(C(C[N+](=O)[O-])c2ccc3c(c2)OCO3)c(N)n1 (stereo not given),250,,500,25000,50,,,,,,
Nc1nc(N)c(C(C[N+](=O)[O-])c2cccc([N+](=O)[O-])c2)c(N)n1 (stereo not given),< 100,63400,1190,50000,42,74.2,,,,,
Nc1nc(N)c(C(C[N+](=O)[O-])c2ccccc2OCc2ccccc2[N+](=O)[O-])c(N)n1 (stereo not given),260,46200,,,,11.7,48,,,,
Nc1nc(N)c(C(C[N+](=O)[O-])c2ccccc2OCc2cccc(Cl)c2)c(N)n1 (stereo not given),600,51300,400,12500,31,61,,446,0.5,1820,2.4
Nc1cc(N)nc(N)n1,2380,4010,,,,,,,,,
CCc1nc(N)nc(N)c1-c1ccc(Cl)cc1 [PYRIMETHAMINE],90,,,,,,,,,,
Nc1nc(N)c(C(C[N+](=O)[O-])c2ccc3c(c2)OCCO3)c(N)n1 (stereo not given),230,2500,1110,12500,11,54.4,,25,1,107,4.5
Nc1nc(N)c(C(C[N+](=O)[O-])c2ccccc2OCc2ccccc2)c(N)n1 (stereo not given),240,51300,600,> 100000,> 167,81.1,,,,,
Nc1nc(N)c(C(C[N+](=O)[O-])c2cccc3c2OCO3)c(N)n1 (stereo not given),30,47600,1210,12500,10,36,,399,0.5,2700,2.1
